According to patent US4812443A, “Methods for enhancing differentiation and proliferation of hematopoietic progenitor cells” (Kuraray Co., Ltd., priority 1984, dated 1989):
“Also recorded” adds a separate entry of the source.

What was measured:
[1] = system: late erythrocytic progenitor cells (CFU-e); test: Differentiation and proliferation of late erythrocytic progenitor cells (CFU-e), cluster colony formation; assay type: cell-based, mouse (BDF1-strain); settings: 20 μg/ml, Runs 2 to 4
Description: The mouse bone marrow cells used in the following experiments were all prepared as follows:
BDF1 -strain mice (female, 8 to 10 weeks old) were killed by cervical dislocation, and the femurs were collected under sterile conditions. The bone marrow cells were flushed out from the femurs with α-medium, and formed into a single cell suspension by repeated aspiration with a 26-gauge needle fitted to a 1 ml-syringe. The cells were washed two times with α-medium by centrifugation at 200×G for 5 minutes and used in the following experiments.
In accordance with the method of Murphy et al. mentioned above, mouse bone marrow cells were plated at 2.5×10^4 nuclear cells into 0.5 ml of α-medium containing 0.25 unit of erythropoietin, 30% fetal bovine serum, 1% bovine serum albumin, 0.1 mM 2-mercaptoethanol and 0.4% methyl cellulose with 10 μg of dolichol dissolved in 1 μl of ethanol, 10 μg of dolichyl phosphate dispersed in 0.5 μl of dimethyl sulfoxide, 1 μl of ethanol or 0.5 μl of dimethyl sulfoxide in a 16 mm.phi. tissue culture plate, and incubated at 37° C. in a humidified atmosphere of 5% carbon dioxide in air for 2 days. The number of cluster colonies consisting of 8 to 64 erythroblasts derived from CFU-e in the tissue culture plate was scored with an inverted microscope. The experiment was carried out by 6 replica assays for each group, and the average number of the colonies formed was determined. The results are shown in Table 3, in the rows of Runs 2 to 4.

extracted spermiduct = test: Peripheral action, extracted spermiduct of rats; set-up: species or system rat (Wistar-strain); settings: up to 10^-4 g/ml, 32° C.
Text: (§1) Since the dolichol is a water-insoluble oily liquid, it was used as a solution in sesame oil in the case of oral administration, and as a suspension in a nonionic surfactant (HCO-60, a trade name for a product of Nikko Chemical Co., Ltd.) in the case of intraperitoneal administration and in an in vitro test in the following experiment.
(§2) In the following experiment, ddY-strain male mice, Wistar-strain male rats (Shizuoka Laboratory Animal Center), Japanese white male rabbits (Carely) and Hartley-strain male guinea pigs (Clea Japan Inc.) were used. The animals were kept under conditions including a temperature of 23±1° C., a humidity of 55±10%, an illuminating time (7:00 am to 9.00 pm) and 15 ventilations per hour. The mice and rats were fed with solid feeds MF (a product of Oriental Yeast Co., Ltd.) and the guinea pigs and rabbits were fed with solid feeds GM-3 and RM-1 (Funabashi Farm Co.). They were allowed to take tap water freely. The animals were preliminarily kept for more than one week, and those which were healthy in general conditions were used in the experiments.
Wistar-strain male rats (180 to 200 g), 3 per group, were used. The extracted spermiduct samples were suspended in Locke-Ringer solution at 32° C. The contraction of the spermiduct was recorded by the same method as in the preceding section. […]

extracted atrium = test: Peripheral action, extracted atrium of guinea pigs; set-up: species or system guinea pig (Hartley-strain); settings: 10^-6, 10^-5 and 10^-4 g/ml; 30° C.
Text: as §1, §2
Hartley-strain male guinea pigs (350-400 g), 3 per group, were used. […] The contraction of the atria was recorded on an ink-writing oscillograph (EMP-3004, Nippon Photoelectric Co.) through an FD pick-up (TB-611T, Nippon Photoelectric Co.). […]

extracted trachea = test: Peripheral action, extracted trachea of guinea pigs; set-up: species or system guinea pig (Hartley-strain); settings: up to 10^-4 g/ml, 37° C.
Text: as §1, §2
Hartley-strain male guinea pigs (350-400 g), 3 per group, were used. The extracted trachea was suspended in Locke-Ringer solution at 37° C. through which air was introduced. The contraction of the trachea was recorded in the same way as in the case of the extracted ileum. […]

blood coagulation system = test: Effect on the blood coagulation system in rats (Quick's one-step method); assay type: in vivo, rat (Wistar-strain); settings: 150, 300 and 600 mg/kg; two hours after administration; vs control
Text: as §1, §2
Wistar-strain male rats (180-210 g), 6 per group, were used. Two hours after administration of dolichol to rats, the blood was taken from the abdominal main vein of the rats, and the prothrombin time was measured by the Quick's one-step method.

acetic acid writhing = test: Analgesic action in mice (acetic acid writhing method); assay type: in vivo, mouse (ddY-strain); settings: 150, 300 and 600 mg/kg; one hour before acetic acid; vs control
Text: as §1, §2
ddY-strain male mice (27-30 g), 6 per group, were used. One hour after administration of dolichol to the mice, 0.6% acetic acid was intraperitoneally administered to the mice in a dose of 0.1 ml/10 g. […] The inhibitory action on acetic acid writhing was thus examined.

[2] = system: maximal electroshock seizure; test: Anticonvulsive action (maximal electroshock seizure) in mice; assay type: in vivo, mouse (ddY-strain); settings: 150, 300 and 600 mg/kg; one hour after administration; 40 mA, 0.4 msec, 50 Hz, 0.5 sec; vs control
Text: as §1, §2
ddY-male mice (27-30 g), 6 per group, were used. One hour after administration of dolichol to the mice, an electric current was passed through the corneas of the mice under conditions of 40 mA, 0.4 msec, 50 Hz and 0.5 sec, and the time of duration of tonic extension (T. E.) was measured.

Water solubility = assay type: physicochemical

Substance: dolichol
- Number of colonies formed in the dolichols-added group (CFU-e) ([1]; 2 days, erythropoietin 0.25 unit, mean ± S.E., 6 replicas, solvent controls 124.2 ± 2.7, 246.0 ± 5.0, 124.7 ± 2.9): 151.0 ± 2.2
- Percent increase (%) of colony formation (CFU-e) ([1]; vs solvent-added control group): +21.6%
- Antagonistic action against noradrenalin (extracted spermiduct; extracted spermiduct): nor any antagonistic action
- Direct action on extracted spermiduct (extracted spermiduct): no direct action
- Chronotropic action (extracted atrium): nor chronotropic action
- Inotropic action (extracted atrium): no inotropic
- Antagonistic action against isoproterenol (extracted trachea; extracted trachea): nor antagonistic action
- Direct action on extracted trachea (extracted trachea): no direct action
- Prothrombin time (blood coagulation system): tended to become longer; also recorded: no significant difference was noted
- Inhibitory action on acetic acid writhing (acetic acid writhing): no significant difference was noted
- Time of duration of tonic extension (T. E.) [2]: no significant difference was noted
- Water solubility (Water solubility): water-insoluble
